Data as given in patent publication US20060100291A1, “Antibacterial compounds” (priority 2001, published 2006).
≈ marks a conversion by molar mass, not a printed value. Entries after “also recorded” stand apart in the source; their conditions may differ. Where two headings read alike, the source gives them in different places.

Tests used:
[1] = system: Bacillus subtilis (ATCC strain 19659); assay: Disc diffusion assay; assay type: cell-based; conditions: for BS activity: width of zone of growth inhibition / zone of inhibition at 60 µg/disc: disc assay dosed at 60 μg/disc, 24 h; for zone of inhibition at 60 µg/disc: read-out: BS activity: width of zone of growth inhibition
Method: The compounds of Examples 1 to 7 were also tested against another Gram-positive bacterium, Bacillus subtilis (ATCC strain 19659), in disc diffusion assays. […] The positive control in this assay was the clinically proven antimicrobial agent chloramphenicol (30 μg/disc), which gave a 12 mm zone.

[2] = system: Swiss male mice (Mus musculus); assay: Acute toxicity in mice, intraperitoneal injection; assay type: in vivo; conditions: for acute toxic effects: ip in cottonseed oil, up to 400 mg/kg, observed 6 h plus 18 h
Method: Compound I has been tested in mice for acute toxicity.
A single trial was completed using twenty-five Swiss male mice (Mus musculus), weighing 20 g±2 g. Mice were selected by gender and weight, individually identified and randomly placed in 5 cages of 5 mice each. Mice were injected intraperitoneally with one of five levels of antibiotic [0 (control), 1, 2, 4 and 8 mg/ml]. Cottonseed oil was used as a carrier solution for the test substance. One mL samples were mixed before being injected using 1.0 ml syringes and 21G needles. Mice were observed continuously for 6 hours and any deaths or adverse symptoms recorded. This initial hour observation period was subsequently followed by another 18-hour monitoring period. […] This was also the case for mice injected solely with cottonseed oil. This is in direct contrast to weekly calibration assays using the toxic control saxitoxin dihydrochloride.

[3] = system: Methicillin Resistant Staphylococcus aureus (MRSA) (strain 1126); assay: MIC in Mueller Hinton broth, serial doubling dilutions; assay type: cell-based
Method: Minimum inhibitory concentrations [MIC] were tested in Mueller Hinton [MH] broth. The human pathogen Methicillin Resistant Staphylococcus aureus (MRSA) (strain 1126) was provided by the University of Otago. Glass vials (30 mL) containing MH broth (10 mL) were inoculated from an actively growing culture and incubated overnight at 37° C. A standardized procedure to suspend each compound in MH broth was used. Each compound (5 mg) was dissolved in ethanol (1 mL). MH broth (9 mL) was then added to the ethanol containing the compound, resulting in stock solution concentrations of 500 μg /mL.
The MIC for each compound was determined by carrying out 3 replicate serial dilutions in Nunc® 48 well microtiter plates. To test the MICs, each compound stock solution was vigorously mixed before I mL was dispensed aseptically by pipette into 3 of the 6 first wells of a microtiter plate. MH broth (0.5 mL) was dispensed into all wells of the microtiter plate except the first row. Serial doubling dilutions were carried out through 12 wells (1½ microtiter plates). Mixing was carried out by repeated pipetting of 100 μL amounts. 500 μL was discarded from the last wells to conserve the […] compound concentration. Each well was inoculated with an aliquot (25 μL) of MRSA suspension diluted by 10^−2. All test and control microtiter plates were incubated at 37° C. and read after 48 h and 72 h.

[4] = system: Enterococcus and S. aureus strains tested in Table 2; assay: Bacteriostatic/bactericidal concentrations (MIC/MBC) over the strains of Table 2; assay type: cell-based; conditions: all strains of Table 2; read-out: Bacteriocidal concentration (MBC)
Method: (§1) Minimum inhibitory concentrations (MICs) were determined using a broth microdilution method. Bacterial isolates were inoculated into Todd-Hewitt broth (THB) and incubated at 37 C with shaking (200 rpm) for 18 h. Overnight cultures were diluted to an OD of 0.01 (at […], 1 cm light path) to give a final inoculum for broth microdilution of OD 0.005. Doubling dilutions of the test compounds were prepared in THB in microtitre plates. Tween 80 (Sigma) was added at a final concentration of 14 % to enhance solubility. The range of concentrations tested (with doubling dilutions) was 16 μg/mL to 0.063 μg/mL. Microtitre plates were incubated at 37 ° C. for 18 h with gentle shaking. Plates were read using a microplate reader (Multiskan Ascent, Labsystems), measuring the OD at 595 nm. Minimum bactericidal concentrations (MBCs) were determined by placing 5 μL of culture from wells without growth onto THB plates and incubating at 37° C. for 18 h. The MBC was the lowest concentration without growth from the drop of culture.

[5] = system: Enterococcus faecalis ATCC29212 Wild-type (fully susceptible); assay: Broth microdilution MIC (THB); assay type: cell-based; conditions: three experiments
Method: as §1

[6] = system: S. aureus AS92/349 Mupirocin resistant; assay: Broth microdilution MIC (THB); assay type: cell-based; conditions: three experiments
Method: as §1

[7] = system: S. aureus PC-3 Vancomycin/Oxacillin resistant (GISA); assay: Broth microdilution MIC (THB); assay type: cell-based; conditions: Staphylococcus aureus, three experiments
Method: as §1

[8] = system: S. aureus ATCC25923 Wild-type (fully susceptible); assay: Broth microdilution MIC (THB); assay type: cell-based; conditions: three experiments
Method: as §1

[9] = system: Enterococcus faecalis 8A-25 Vancomycin resistant (VRE, vanA); assay: Broth microdilution MIC (THB); assay type: cell-based; conditions: E. faecalis 8A-25 vancomycin resistant (VRE, vanA), three experiments
Method: as §1

[10] = system: S. aureus OUM1126 Oxacillin resistant (MRSA); assay: Broth microdilution MIC (THB); assay type: cell-based; conditions: Staphylococcus aureus, three experiments
Method: as §1

[11] = system: S. aureus ST94/1208 Oxacillin/Gentamicin resistant (cMRSA); assay: Broth microdilution MIC (THB); assay type: cell-based; conditions: Staphylococcus aureus, three experiments
Method: as §1

[12] = system: S. aureus OUM1127 Erythromycin resistant; assay: Broth microdilution MIC (THB); assay type: cell-based; conditions: Staphylococcus aureus, three experiments
Method: as §1

[13] = system: Enterococcus faecalis CD2-49 Gentamicin resistant; assay: Broth microdilution MIC (THB); assay type: cell-based; conditions: E. faecalis CD2-49 gentamicin resistant, three experiments
Method: as §1

[14] = system: E. faecium AR99/118 Ampicillin resistant; assay: Broth microdilution MIC (THB); assay type: cell-based; conditions: Enterococcus faecium, three experiments
Method: as §1

listera monocytogenes = assay: MIC against Listeria, by similar methods; assay type: cell-based
[15] = background statement, organism not given; cited from earlier work
[16] = MH broth, 37° C., read after 48 h and 72 h, University of Otago strain 1126, read-out: MRSA activity: upper and lower limits of Minimum Inhibitory Concentration

5-hydroxy-4-(1-oxopropylcyclohexl)-2,6,6-tetramethyl-4-cyclohexene-1,3-dione [Example 5]
BS activity: width of zone of growth inhibition [1]: 12 mm

CCCCCCCCCCCC(=O)C1=C(O)C(C)(C)C(=O)C(C)(C)C1=O [Example 1, 5-hydroxy-4-(1-oxododecyl)-2,2,6,6-tetramethyl-4-cyclohexene-1,3-dione]
zone of inhibition at 60 µg/disc ([1]; Bacillus subtilis, ATCC19659): 3 mm
mouse deaths ([2]; ip in cottonseed oil, 1, 2, 4 and 8 mg/ml, 1 mL): no mouse deaths were recorded
acute toxic effects ([2]; listed as Compound I): no toxic effects; also recorded: no adverse toxic symptoms
acute toxic effects ([2]; listed as Example I): not toxic to mice
MIC [3, 16]: 0.5 to 1 µg/mL (≈ 1.37 to 2.74 µM)
MBC [4]: ≥ 8 µg/mL
MIC ([5]; E. faecalis ATCC29212 wild-type): 0.5 µg/mL (≈ 1.37 µM)
MIC ([5]; Enterococcus faecalis, ATCC29212, E. faecalis ATCC29212 wild-type, read-out: MIC): 1 µg/mL (≈ 2.74 µM)
MIC ([6]; Staphylococcus aureus, read-out: MIC): 1 µg/mL (≈ 2.74 µM)
MIC [6]: 2 µg/mL (≈ 5.49 µM)
MIC [7]: 2 µg/mL (≈ 5.49 µM)
MIC ([8]; S. aureus ATCC25923 wild-type): 1 µg/mL (≈ 2.74 µM)
MIC ([8]; Staphylococcus aureus, ATCC25923, S. aureus ATCC25923 wild-type, read-out: MIC): 2 µg/mL (≈ 5.49 µM)
MIC [9]: 1 µg/mL (≈ 2.74 µM)
MIC [10]: 1 µg/mL (≈ 2.74 µM)
MIC [11]: 1 µg/mL (≈ 2.74 µM)
MIC [12]: 1 µg/mL (≈ 2.74 µM)
MIC [13]: 0.5 µg/mL (≈ 1.37 µM)
MIC ([13]; Enterococcus faecalis, read-out: MIC): 1 µg/mL (≈ 2.74 µM)
MIC [14]: 2 µg/mL (≈ 5.49 µM)
MIC (listera monocytogenes): < 3.9 µg/mL

CCCCCCCCCC(=O)C1=C(O)C(C)(C)C(=O)C(C)(C)C1=O [Example 2, 5-hydroxy-4-(1-oxodecyl)-2,2,6,6,-tetramethyl-4-cyclohexene-1,3-dione]
BS activity: width of zone of growth inhibition [1]: 7 mm

CCCCCCCCCCCCCCCC(=O)C1=C(O)C(C)(C)C(=O)C(C)(C)C1=O [Example 3, 5-hydroxy-4(1-oxohexadecyl)-2,2,6,6-tetramethyl-4-cyclohexene-1,3-dione]
zone of inhibition at 60 µg/disc ([1]; Bacillus subtilis, ATCC19659): 0 mm
MIC [3, 16]: 2 to 7.8 µg/mL (≈ 4.75 to 18.5 µM)
melting point: 39 °C

CC1(C)C(=O)C(C2(C=O)CCCCC2)=C(O)C(C)(C)C1=O [Example 4, 5-hydroxy-4(1-oxomethylcyclohexyl)-2,2,6,6-tetramethyl-4-cyclohexene-1,3dione]
zone of inhibition at 60 µg/disc ([1]; Bacillus subtilis, ATCC19659): 0 mm
MIC [3, 16]: 15.6 to 62.5 µg/mL (≈ 53.4 to 214 µM)
melting point: 47.8 °C

CCCCCCCCCCCC(=O)C1=C(O)C(CC)(CC)C(=O)C(CC)(CC)C1=O [Example 6]
BS activity: width of zone of growth inhibition [1]: 0 mm

CCCCCCCCCCCC(=O)C1=C(O)C(C)(C)C(=O)C(C)(CC=C(C)C)C1=O (centres unmarked) [Example 7, 5-hydroxy-4-(1-oxododecyl)-2-prenyl-2,6,6trimethyl-4-cyclohexene-1,3-dione]
zone of inhibition at 60 µg/disc ([1]; Bacillus subtilis, ATCC19659): 0 mm
MIC [3, 16]: 1 to 2 µg/mL (≈ 2.39 to 4.78 µM)

O=C(N[C@H](CO)[C@H](O)c1ccc([N+](=O)[O-])cc1)C(Cl)Cl [chloramphenicol, reference compound]
zone of inhibition at 30 µg/disc ([1]; Bacillus subtilis, ATCC19659, positive control, 30 μg/disc, read-out: width of zone of inhibition): 12 mm

CN[C@H](CC(C)C)C(=O)N[C@H]1C(=O)N[C@@H](CC(N)=O)C(=O)N[C@H]2C(=O)N[C@H]3C(=O)N[C@H](C(=O)N[C@H](C(=O)O)c4cc(O)cc(O)c4-c4cc3ccc4O)[C@H](O)c3ccc(c(Cl)c3)Oc3cc2cc(c3O[C@@H]2O[C@H](CO)[C@@H](O)[C@H](O)[C@H]2O[C@H]2C[C@](C)(N)[C@H](O)[C@H](C)O2)Oc2ccc(cc2Cl)[C@H]1O [vancomycin, reference compound]
MIC ([3]; read-out: MRSA activity: upper and lower limits of Minimum Inhibitory Concentration): 1.6 to 3.1 µg/mL (≈ 1.1 to 2.14 µM)
MIC [15]: approximately 2 μg/ml
